From patent US20170333390A1, “PHYTOCHEMICAL COMPOSITIONS INCLUDING SESAMIN FOR ANTI-INFLAMMATORY, ANTI-CYTOKINE STORM, AND OTHER USES” (CHIANG MAI UNIVERSITY, priority 2009, published 2017)

System: IL-1 gene expression in LPS induced synovial fibroblast (SF) cells
Assay: IL-1 gene expression relative to GAPDH in LPS induced synovial fibroblast cells (RT-PCR)
Type: cell-based
Details: 24 hours
Description: Experiments were conducted to evaluate the effect of particular phytochemical compositions provided by the present disclosure on IL-1 gene expression in specified cells found within a body of a living organism. The cells used for the experiments described in example one are lipopolysaccharide (LPS) induced synovial fibroblast (SF) cells. The SF cells were isolated from synovium tissue (also referred to as synovial tissue) using standard cell isolation techniques or methods known to a person of ordinary skill in the art. In addition, LPS is obtained from a commercial source, for example Sigma-Aldrich Co. It is understood by a person having ordinary skill in the art that the SF cells may be substituted with other immune cells found within the body, for example peripheral blood mononuclear cells, lymphocytes, monocytes, and macrophages, which can be isolated using techniques or methods known to a person of ordinary skill in the art. […]
The amount or level of IL-1 gene expression in the SF cells was measured or determined using methods or techniques known to a person having ordinary skill in the relevant art. In example 1, Real-Time PCR (RT-PCR) was used for quantifying the amount of IL-1 gene expression in the SF cells. IL-1beta or IL-1β specific primers were used during RT-PCR, thereby facilitating the quantification of IL-1β gene expression in the SF cells. […]

Structure (SMILES): c1cc2c(cc1[C@H]1OC[C@H]3[C@@H]1CO[C@@H]3c1ccc3c(c1)OCO3)OCO2 [sesamin]
- decrease in IL-1 gene expression relative to GAPDH (0.025 mM sesamin (culture 4), compared to control culture 3 (LPS 0.2 μg/ml + DMSO)): approximately 20%
- decrease in IL-1 gene expression relative to GAPDH (1.0 mM sesamin (culture 9), compared to control culture 2 (LPS 0.2 μg/ml)): approximately 65%
